Results as given in US20150307938A1, “METHOD TO IDENTIFY A NOVEL CLASS OF IMMUNOLOGIC ADJUVANTS” (Lancell, L.L.C., priority 2011, published 2015).

Tested on: skin
Experiment: Affymetrix microarray of skin, DBP-4 hr and analogs vs. untreated; gene selection by log-2 fold change, Wilcoxon, Kendall tau (Tables 8, 9)
Format: in vivo, mouse

**Q.** What does the source list for `CC(C)=O` [Acetone]?
**A.** Log2 Expression Level (gene #1 of Table 8): 5.63; Log2 Expression Level (gene #2 of Table 8): 7.13; Log2 Expression Level (gene #3 of Table 8): 8.73; Log2 Expression Level (gene #4 of Table 8): 8.73; Log2 Expression Level (gene #5 of Table 8): 6.36; Log2 Expression Level (gene #6 of Table 8): 5.62; Log2 Expression Level (gene #7 of Table 8): 5.07; Log2 Expression Level (gene #8 of Table 8): 5.62; Log2 Expression Level (gene #9 of Table 8): 5.62; Log2 Expression Level (gene #10 of Table 8): 5.62; Log2 Expression Level (gene #11 of Table 8): 5.07; Log2 Expression Level (gene #12 of Table 8): 5.07; Log2 Expression Level (gene #13 of Table 8): 5.07; Log2 Expression Level (gene #14 of Table 8): 4.90; Log2 Expression Level (gene #15 of Table 8): 4.90; Log2 Expression Level (gene #16 of Table 8): 6.15; Log2 Expression Level (gene #17 of Table 8): 8.79; Log2 Expression Level (gene #18 of Table 8): 8.79; Log2 Expression Level (gene #19 of Table 8): 8.22; Log2 Expression Level (gene #20 of Table 8): 7.12; Log2 Expression Level (gene #21 of Table 8): 7.81; Log2 Expression Level (gene #22 of Table 8): 7.76; Log2 Expression Level (gene #23 of Table 8): 5.76; Log2 Expression Level (gene #24 of Table 8): 6.97; Log2 Expression Level (gene #25 of Table 8): 6.97; Log2 Expression Level (gene #26 of Table 8): 6.97; Log2 Expression Level (gene #27 of Table 8): 6.97; Log2 Expression Level (gene #28 of Table 8): 6.97; Log2 Expression Level (gene #29 of Table 8): 4.96; Log2 Expression Level (gene #30 of Table 8): 8.52; Log2 Expression Level (gene #31 of Table 8): 8.52; Log2 Expression Level (gene #32 of Table 8): 8.52; Log2 Expression Level (gene #33 of Table 8): 5.65; Log2 Expression Level (gene #34 of Table 8): 6.46; Log2 Expression Level (gene #35 of Table 8): 6.46; Log2 Expression Level (gene #36 of Table 8): 8.73; Log2 Expression Level (gene #37 of Table 8): 8.73; Log2 Expression Level (gene #38 of Table 8): 8.73; Log2 Expression Level (gene #39 of Table 8): 7.16; Log2 Expression Level (gene #40 of Table 8): 7.23; Log2 Expression Level (gene #41 of Table 8): 7.42; Log2 Expression Level (gene #42 of Table 8): 7.03; Log2 Expression Level (gene #43 of Table 8): 7.03; Log2 Expression Level (gene #44 of Table 8): 7.42; Log2 Expression Level (gene #45 of Table 8): 7.03; Log2 Expression Level (gene #46 of Table 8): 7.42; Log2 Expression Level (gene #47 of Table 8): 7.47; Log2 Expression Level (gene #48 of Table 8): 7.47; Log2 Expression Level (gene #49 of Table 8): 7.47; Log2 Expression Level (gene #50 of Table 8): 7.97; Log2 Expression Level (gene #51 of Table 8): 7.28; Log2 Expression Level (gene #52 of Table 8): 9.55; Log2 Expression Level (gene #53 of Table 8): 7.74; Log2 Expression Level (gene #54 of Table 8): 9.23; Log2 Expression Level (gene #55 of Table 8): 6.67; Log2 Expression Level (gene #56 of Table 8): 8.58; Log2 Expression Level (gene #57 of Table 8): 8.52; Log2 Expression Level (gene #58 of Table 8): 8.50; Log2 Expression Level (gene #59 of Table 8): 8.28; Log2 Expression Level (gene #60 of Table 8): 6.59; Log2 Expression Level (gene #61 of Table 8): 11.19; Log2 Expression Level (gene #62 of Table 8): 7.64; Log2 Expression Level (gene #63 of Table 8): 10.28; Log2 Expression Level (gene #64 of Table 8): 10.06; Log2 Expression Level (gene #65 of Table 8): 6.46; Log2 Expression Level (gene #66 of Table 8): 7.87; Log2 Expression Level (gene #67 of Table 8): 4.12; Log2 Expression Level (gene #68 of Table 8): 6.73; Log2 Expression Level (gene #69 of Table 8): 4.99; Log2 Expression Level (gene #70 of Table 8): 4.18; Log2 Expression Level (gene #71 of Table 8): 6.68; Log2 Expression Level (gene #72 of Table 8): 7.93; Log2 Expression Level (gene #73 of Table 8): 5.55; Log2 Expression Level (gene #74 of Table 8): 7.00; Log2 Expression Level (gene #75 of Table 8): 8.22; Log2 Expression Level (gene #76 of Table 8): 4.30; Log2 Expression Level (gene #77 of Table 8): 8.48; Log2 Expression Level (gene #78 of Table 8): 9.31; Log2 Expression Level (gene #79 of Table 8): 6.49; Log2 Expression Level (gene #80 of Table 8): 12.42; Log2 Expression Level (gene #81 of Table 8): 5.50; Log2 Expression Level (gene #82 of Table 8): 5.03; Log2 Expression Level (gene #83 of Table 8): 6.32; Log2 Expression Level (gene #84 of Table 8): 6.04; Log2 Expression Level (gene #85 of Table 8): 4.71; Log2 Expression Level (gene #86 of Table 8): 6.08; Log2 Expression Level (gene #87 of Table 8): 8.85; Log2 Expression Level (gene #88 of Table 8): 4.54; Log2 Expression Level (gene #89 of Table 8): 5.23; Log2 Expression Level (gene #90 of Table 8): 9.45; Log2 Expression Level (gene #91 of Table 8): 6.14; Log2 Expression Level (gene #92 of Table 8): 6.80; Log2 Expression Level (gene #93 of Table 8): 8.25; Log2 Expression Level (gene #94 of Table 8): 7.10; Log2 Expression Level (gene #95 of Table 8): 4.96; Log2 Expression Level (gene #96 of Table 8): 6.62; Log2 Expression Level (gene #97 of Table 8): 5.16; Log2 Expression Level (gene #98 of Table 8): 4.29; Log2 Expression Level (gene #99 of Table 8): 8.55; Log2 Expression Level (gene #100 of Table 8): 6.49
